These results are taken from patent US20250034136A1 (Nimbus Wadjet, Inc., priority 2023, published 2025).

Test [1] concerns the target WRN (BV08), human Werner helicase (Uniprot Q14191, amino acids 517-1235 with L1074F point mutation) (Homo sapiens (Human), UniProt Q14191, L1074F). Put plainly: WRN (BV08) ADP-Glo assay. In kind it is biochemical. To be noted: class symbols A-E, read-out: ADP-Glo_hWRN_IC50. Background: In ADP-Glo the light output rises with the ADP produced.
For test [2], the system named is p21 induction in HCT116 cells. In words: p21 induction in HCT116 cells. In kind it is cell-based. To be noted: Homo sapiens, HCT-116, 24 h, HCT116 cells, 24 h compound incubation; read-out: P21_EC50. The procedure, abridged:
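HCT116 cells, 2,000/well, treated 24 h at 37 °C with 11-point compound dilutions in duplicate. Fixed, then immunostained for p21 and GAPDH and read by near-IR imaging at 800/700 nm. Normalized to DMSO (low) and reference WRN inhibitor (high) controls; EC50 from non-linear regression.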

Chain of WRN (BV08), human Werner helicase (Uniprot Q14191, amino acids 517-1235 with L1074F point mutation) (Q14191 other isoform, or with tags, fused parts or gaps L1074F (already in the parent)): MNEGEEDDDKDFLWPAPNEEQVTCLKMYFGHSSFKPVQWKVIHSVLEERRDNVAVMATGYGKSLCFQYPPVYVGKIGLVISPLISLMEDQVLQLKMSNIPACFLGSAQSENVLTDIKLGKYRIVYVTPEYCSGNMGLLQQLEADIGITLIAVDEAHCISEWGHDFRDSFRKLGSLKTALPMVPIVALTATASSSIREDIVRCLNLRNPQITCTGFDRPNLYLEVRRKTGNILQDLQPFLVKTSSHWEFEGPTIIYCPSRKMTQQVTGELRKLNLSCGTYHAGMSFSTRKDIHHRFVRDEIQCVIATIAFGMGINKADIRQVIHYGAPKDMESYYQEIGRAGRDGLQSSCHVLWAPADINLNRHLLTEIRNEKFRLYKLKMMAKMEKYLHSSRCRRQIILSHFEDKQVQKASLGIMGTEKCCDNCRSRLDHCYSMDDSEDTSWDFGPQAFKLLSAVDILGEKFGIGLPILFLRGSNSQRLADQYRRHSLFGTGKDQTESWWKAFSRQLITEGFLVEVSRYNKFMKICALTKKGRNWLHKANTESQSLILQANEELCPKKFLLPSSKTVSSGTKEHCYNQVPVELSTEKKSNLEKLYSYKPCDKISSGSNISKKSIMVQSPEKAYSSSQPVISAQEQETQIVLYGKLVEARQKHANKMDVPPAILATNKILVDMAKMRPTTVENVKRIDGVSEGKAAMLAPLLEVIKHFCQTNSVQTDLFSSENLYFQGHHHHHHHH

Turning to `CCc1c(N2CCN(C(=O)c3ncnc(C)c3O)[C@H]3CC[C@@H]32)c(=O)c2nc(C3CC3)cnc2n1CC(=O)Nc1ccc(C(F)(F)F)cc1F` [I-125, 2-(2-cyclopropyl-6-ethyl-7-((1S,6S)-5-(5-hydroxy-6-methylpyrimidine-4-carbonyl)-2,5-diazabicyclo[4.2.0]octan-2-yl)-8-oxopyrido[2,3-b]pyrazin-5(8H)-yl)-N-(2-fluoro-4-(trifluoromethyl)phenyl)acetamide], the IC50 in test [1] was no more than 5 nM. In addition, in test [2], the EC50 is less than 500 nM.
The matching figures for `CCc1c(N2CCN(C(=O)c3ncnc(C)c3O)[C@H]3CC[C@@H]32)c(=O)c2nc(OC3CCC3)cnc2n1CC(=O)Nc1ccc(C(F)(F)F)cc1Cl` [I-181, N-[2-chloro-4-(trifluoromethyl)phenyl]-2-{2-cyclobutoxy-6-ethyl-7-[(1S,6S)-5-(5-hydroxy-6-methylpyrimidine-4-carbonyl)-2,5-diazabicyclo[4.2.0]octan-2-yl]-8-oxo-5H,8H-pyrido[2,3-b]pyrazin-5-yl}acetamide]: 5 to 50 nM and less than 500 nM.
For `CCc1c(N2CCN(C(=O)c3ncnc(C)c3O)[C@H]3CC[C@@H]32)c(=O)c2nc(N3CC(F)(F)C3)cnc2n1CC(=O)Nc1ccc(C(F)(F)F)cc1Cl` [I-245, N-[2-chloro-4-(trifluoromethyl)phenyl]-2-[2-(3,3-difluoroazetidin-1-yl)-6-ethyl-7-[(1S,6S)-5-(5-hydroxy-6-methylpyrimidine-4-carbonyl)-2,5-diazabicyclo[4.2.0]octan-2-yl]-8-oxo-5H,8H-pyrido[2,3-b]pyrazin-5-yl]acetamide] the same measures were 5 to 50 nM and less than 500 nM.
`CCc1c([C@@]23CCN(C(=O)c4ncnc(C)c4O)C[C@@H]2C3)c(=O)c2nc(N(C)C)cnc2n1CC(=O)Nc1ccc(C(F)(F)F)cc1Cl` (single isomer, unassigned) [I-276, N-(2-chloro-4-(trifluoromethyl)phenyl)-2-(2-(dimethylamino)-6-ethyl-7-(3-(5-hydroxy-6-methylpyrimidine-4-carbonyl)-3-azabicyclo[4.1.0]heptan-6-yl)-8-oxopyrido[2,3-b]pyrazin-5(8H)-yl)acetamide]: the IC50 in test [1] was 5 to 50 nM. For the same compound, in test [2], the EC50 lay within 500 to 2000 nM.
For `CCc1c(N2CCN(C(=O)c3c(OC)ncc(C4CC4)c3O)[C@H]3CC[C@@H]32)c(=O)c2nc(N(C)C)cnc2n1CC(=O)Nc1ccc(C(F)(F)F)cc1Cl` [I-286, N-[2-chloro-4-(trifluoromethyl)phenyl]-2-{7-[(1S,6S)-5-(5-cyclopropyl-4-hydroxy-2-methoxypyridine-3-carbonyl)-2,5-diazabicyclo[4.2.0]octan-2-yl]-2-(dimethylamino)-6-ethyl-8-oxo-5H,8H-pyrido[2,3-b]pyrazin-5-yl} acetamide], the IC50 in test [1] fell in the range of 5 to 50 nM. Also, the EC50 in test [2] is less than 500 nM.
For `CCc1c(N2C[C@@H]3CC[C@H]2CN3C(=O)c2ncnc(C)c2O)c(=O)c2nc(N(C)C)cnc2n1CC(=O)Nc1ccc(C(F)(F)F)cc1Cl` (single isomer, unassigned) [I-247, N-(2-chloro-4-(trifluoromethyl)phenyl)-2-(2-(dimethylamino)-6-ethyl-7-(5-(5-hydroxy-6-methylpyrimidine-4-carbonyl)-2,5-diazabicyclo[2.2.2]octan-2-yl)-8-oxopyrido[2,3-b]pyrazin-5(8H)-yl)acetamide] the same measures were 100 to 500 nM and greater than 5000 nM.
On to `CCc1c(N2CCN(C(=O)c3ncnc(C)c3O)CC2)c(=O)c2nc(N(C)S(C)(=O)=O)cnc2n1CC(=O)Nc1ccc(C(F)(F)F)cc1Cl` [I-217, N-[2-chloro-4-(trifluoromethyl)phenyl]-2-{6-ethyl-7-[4-(5-hydroxy-6-methylpyrimidine-4-carbonyl)piperazin-1-yl]-2-(N-methylmethanesulfonamido)-8-oxo-5H,8H-pyrido[2,3-b]pyrazin-5-yl}acetamide], for which the IC50 in test [1] is 100 to 500 nM. In addition, the EC50 in test [2] is greater than 5000 nM.
Take `CCc1c([C@]23CCN(C(=O)c4ncnc(C)c4O)C[C@H]2C3)c(=O)c2nc(N(C)C)cnc2n1CC(=O)Nc1ccc(C(F)(F)F)cc1Cl` (single isomer, unassigned) [I-277, N-(2-chloro-4-(trifluoromethyl)phenyl)-2-(2-(dimethylamino)-6-ethyl-7-(3-(5-hydroxy-6-methylpyrimidine-4-carbonyl)-3-azabicyclo[4.1.0]heptan-6-yl)-8-oxopyrido[2,3-b]pyrazin-5(8H)-yl)acetamide]: in test [1], the IC50 is 5 to 50 nM. Further, the EC50 in test [2] fell in the range of 500 to 2000 nM.
`CCc1c(N2CCN(C(=O)c3c(OC)ncc(C4CCOC4)c3O)[C@H]3CC[C@@H]32)c(=O)c2nc(N(C)C)cnc2n1CC(=O)Nc1ccc(C(F)(F)F)cc1Cl` (stereo partly drawn) [I-287, N-[2-chloro-4-(trifluoromethyl)phenyl]-2-[2-(dimethylamino)-6-ethyl-7-[(1S,6S)-5-[4-hydroxy-2-methoxy-5-(oxolan-3-yl)pyridine-3-carbonyl]-2,5-diazabicyclo[4.2.0]octan-2-yl]-8-oxo-5H,8H-pyrido[2,3-b]pyrazin-5-yl]acetamide]: the IC50 in test [1] was 5 to 50 nM. Besides, in test [2], the EC50 is less than 500 nM.
For `CCc1c(N2CCN(C(=O)c3ncnc(C)c3O)CC2)c(=O)c2nc(N3CCC[C@@H]3C)cnc2n1CC(=O)Nc1ccc(C(F)(F)F)cc1Cl` [I-149, N-[2-chloro-4-(trifluoromethyl)phenyl]-2-{6-ethyl-7-[4-(5-hydroxy-6-methylpyrimidine-4-carbonyl)piperazin-1-yl]-2-[(2S)-2-methylpyrrolidin-1-yl]-8-oxo-5H,8H-pyrido[2,3-b]pyrazin-5-yl}acetamide], the IC50 in test [1] fell in the range of 5 to 50 nM. In addition, in test [2], the EC50 was in the range of 500 to 2000 nM.
With `CCc1c(N2CCN(C(=O)c3ncnc(C)c3O)CC2)c(=O)c2nc(C=C3CC(OC)C3)cnc2n1CC(=O)Nc1ccc(C(F)(F)F)cc1Cl` (stereo not drawn) [I-117, N-(2-chloro-4-(trifluoromethyl)phenyl)-2-(6-ethyl-7-(4-(5-hydroxy-6-methylpyrimidine-4-carbonyl)piperazin-1-yl)-2-((3-methoxycyclobutylidene)methyl)-8-oxopyrido[2,3-b]pyrazin-5(8H)-yl)acetamide], in test [1], the IC50 was 5 to 50 nM. Further, in test [2], the EC50 is less than 500 nM.
The matching figures for `CCc1c(N2CCN(C(=O)c3ncnc(C)c3O)CC2)c(=O)c2nc(C3=CCOC3)cnc2n1CC(=O)Nc1ccc(C(F)(F)F)cc1Cl` [I-90, N-(2-chloro-4-(trifluoromethyl)phenyl)-2-(2-(2,5-dihydrofuran-3-yl)-6-ethyl-7-(4-(5-hydroxy-6-methylpyrimidine-4-carbonyl)piperazin-1-yl)-8-oxopyrido[2,3-b]pyrazin-5(8H)-yl)acetamide]: 5 to 50 nM and greater than 5000 nM.
With `CCc1c(N2CCN(C(=O)c3ncnc(C)c3O)CC2)c(=O)c2nc(/C=C/C(C)(C)O)cnc2n1CC(=O)Nc1ccc(C(F)(F)F)cc1Cl` [I-138, N-[2-chloro-4-(trifluoromethyl)phenyl]-2-{6-ethyl-2-[(1E)-3-hydroxy-3-methylbut-1-en-1-yl]-7-[4-(5-hydroxy-6-methylpyrimidine-4-carbonyl)piperazin-1-yl]-8-oxo-5H,8H-pyrido[2,3-b]pyrazin-5-yl}acetamide], the IC50 in test [1] was in the range of 5 to 50 nM. The EC50 in test [2] was greater than 5000 nM.
As to `CCc1c(N2CCN(C(=O)c3ncnc(C)c3O)[C@H]3CC[C@@H]32)c(=O)c2nc(N3CC[C@H](O)C3)cnc2n1CC(=O)Nc1ccc(C(F)(F)F)cc1Cl` [I-271, N-[2-chloro-4-(trifluoromethyl)phenyl]-2-{6-ethyl-7-[(1S,6S)-5-(5-hydroxy-6-methylpyrimidine-4-carbonyl)-2,5-diazabicyclo[4.2.0]octan-2-yl]-2-[(3S)-3-hydroxypyrrolidin-1-yl]-8-oxo-5H,8H-pyrido[2,3-b]pyrazin-5-yl}acetamide], the IC50 in test [1] lay in the range of 5 to 50 nM. Moreover, the EC50 in test [2] lay within 500 to 2000 nM.
`CCc1c(N2CCN(C(=O)c3ncnc(C)c3O)[C@@H]3CC[C@H]32)c(=O)c2nc(C=C3CCC3)cnc2n1CC(=O)Nc1ccc(C(F)(F)F)cc1Cl` (racemic) [I-135]: in test [1], the IC50 was in the range of 5 to 50 nM. In test [2], the EC50 is less than 500 nM.
Regarding `CCc1c(N2CCN(C(=O)c3c(F)cnc(OC)c3O)CC2)c(=O)c2ncc(C)nc2n1CC(=O)Nc1ccc(C(F)(F)F)cc1Cl` [I-62, N-(2-chloro-4-(trifluoromethyl)phenyl)-2-(6-ethyl-7-(4-(5-fluoro-3-hydroxy-2-methoxyisonicotinoyl)piperazin-1-yl)-3-methyl-8-oxopyrido[2,3-b]pyrazin-5(8H)-yl)acetamide], the IC50 in test [1] was 5 to 50 nM. In addition, in test [2], the EC50 was greater than 5000 nM.
The matching figures for `CCc1c(N2CCN(C(=O)c3ncnc(C)c3O)CC2)c(=O)c2nc(-c3cnn(C)c3)c(C)nc2n1CC(=O)Nc1ccc(C(F)(F)F)cc1Cl` [I-63, N-(2-chloro-4-(trifluoromethyl)phenyl)-2-(6-ethyl-7-(4-(5-hydroxy-6-methylpyrimidine-4-carbonyl)piperazin-1-yl)-3-methyl-2-(1-methyl-1H-pyrazol-4-yl)-8-oxopyrido[2,3-b]pyrazin-5(8H)-yl)acetamide]: 5 to 50 nM and greater than 5000 nM.
`CCc1c(N2CCN(C(=O)c3ncnc(C)c3O)CC2)c(=O)c2nc(N3CC(O)C3)cnc2n1CC(=O)Nc1ccc(C(F)(F)F)cc1Cl` [I-45, N-(2-chloro-4-(trifluoromethyl)phenyl)-2-(6-ethyl-7-(4-(5-hydroxy-6-methylpyrimidine-4-carbonyl)piperazin-1-yl)-2-(3-hydroxyazetidin-1-yl)-8-oxopyrido[2,3-b]pyrazin-5(8H)-yl)acetamide]: the IC50 in test [1] lay in the range of 5 to 50 nM. Also, in test [2], the EC50 is greater than 5000 nM.
